pEC50: −log10 of the molar value.
Test system: HCV replicon
Test: HCV replicon replication assay (NPT ELISA) in Huh-7 replicon-containing cells
Assay type: cell-based
Conditions: Hepatitis C virus, 72 h; HCV replicon in Huh-7 cells, three days incubation; read-out: EC50
Outline: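 Replication was scored by capture ELISA of neomycin phosphotransferase, whose level tracks replicon replication, after graded compound treatment. The cells were Huh-7 harbouring an HCV-IRES/neo/EMCV-IRES/NS3–NS5B/3′-NTR replicon, plated at 6000-7500 cells/well and dosed 24 h later at 60-70% confluence; interferon alpha was the positive control.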

With C=C[C@@H]1C[C@]1(NC(=O)[C@@H]1C[C@@H](Oc2cc(-c3nc(C(C)C)cs3)nc3c(C)c(OC)ccc23)CN1C(=O)[C@@H](CC(=O)N1CCCC(F)(F)C1)C(C)(C)C)C(=O)NS(=O)(=O)C1CC1 [Compound 248, (2S,4R)-1-((S)-2-tert-butyl-4-(3,3-difluoropiperidin-1-yl)-4-oxobutanoyl)-N-((2S)-1-(cyclopropyl-sulfonylcarbamoyl)-2-vinylcyclopropyl)-4-(2-(4-isopropylthiazol-2-yl)-7-methoxy-8-methylquinolin-4-yloxy)pyrrolidine-2-carboxamide] as the compound, how does the pEC50 read?
The pEC50 was over 6.00.

C=C[C@@H]1C[C@]1(NC(=O)[C@@H]1C[C@@H](Oc2cc(-c3nc(C(C)C)cs3)nc3cc(OC)ccc23)CN1C(=O)[C@@H](CC(=O)N1CCCC(F)(F)C1)C(C)(C)C)C(=O)NS(=O)(=O)C1CC1 [Compound 251, (2S,4R)-1-((S)-2-tert-butyl-4-(3,3-difluoropiperidin-1-yl)-4-oxobutanoyl)-N-((2S)-1-(cyclopropyl-sulfonylcarbamoyl)-2-vinylcyclopropyl)-4-(2-(4-isopropylthiazol-2-yl)-7-methoxyquinolin-4-yloxy)pyrrolidine-2-carboxamide] was tested. Which pEC50 did it give?
Its pEC50 is over 6.00.

With C=C[C@@H]1C[C@]1(NC(=O)[C@@H]1C[C@@H](Oc2cc(-c3cccnc3)nc3c(C)c(OC)ccc23)CN1C(=O)[C@@H](CC(=O)N1CCCC(F)(F)C1)C(C)(C)C)C(=O)NS(=O)(=O)C1CC1 [Compound 252, (2S,4R)-1-((S)-2-tert-butyl-4-(3,3-difluoropiperidin-1-yl)-4-oxobutanoyl)-N-((2S)-1-(cyclopropyl-sulfonylcarbamoyl)-2-vinylcyclopropyl)-4-(7-methoxy-8-methyl-2-(pyridin-3-yl)quinolin-4-yloxy)pyrrolidine-2-carboxamide] as the compound, how does the pEC50 read?
The pEC50 was over 6.00.

How did the pEC50 turn out when C=CC1C[C@]1(NC(=O)[C@@H]1C[C@@H](Oc2cc(-c3csc(C(C)C)n3)nc3c(C)c(OC)ccc23)CN1C(=O)[C@@H](CC(=O)N1CCCC(F)(F)C1)C(C)(C)C)C(=O)NS(=O)(=O)C1CC1 (stereo partly drawn) [Compound 254, (2S,4R)-1-((S)-2-tert-butyl-4-(3,3-difluoropiperidin-1-yl)-4-oxobutanoyl)-N-((1R)-1-(cyclopropyl-sulfonylcarbamoyl)-2-vinylcyclopropyl)-4-(2-(2-isopropylthiazol-4-yl)-7-methoxy-8-methylquinolin-4-yloxy)pyrrolidine-2-carboxamide] was run?
The pEC50 was over 6.00.

How did the pEC50 turn out when C=C[C@@H]1C[C@]1(NC(=O)[C@@H]1C[C@@H](Oc2cc(-c3nc(C(C)C)cs3)nc3c(C)c(OC)ccc23)CN1C(=O)[C@@H](CC(=O)N1CCCCC1)C(C)(C)C)C(=O)NS(=O)(=O)C1CC1 [Compound 255, (2S,4R)-1-((S)-2-tert-butyl-4-oxo-4-(piperidin-1-yl)butanoyl)-N-((2S)-1-(cyclopropyl-sulfonylcarbamoyl)-2-vinylcyclopropyl)-4-(2-(4-isopropylthiazol-2-yl)-7-methoxy-8-methylquinolin-4-yloxy)pyrrolidine-2-carboxamide] was run?
The pEC50 was over 6.00.

Reference: US9133115B2 (ACHILLION PHARMACEUTICALS, INC., priority 2008, dated 2015)
